# Assay results from BindingDB's records for doi:10.1111/cbdd.12356 (Peking University, 2014).
# Target: T1, Polyunsaturated fatty acid 5-lipoxygenase (Homo sapiens, UniProt P09917)
# T1 sequence (P09917 whole entry): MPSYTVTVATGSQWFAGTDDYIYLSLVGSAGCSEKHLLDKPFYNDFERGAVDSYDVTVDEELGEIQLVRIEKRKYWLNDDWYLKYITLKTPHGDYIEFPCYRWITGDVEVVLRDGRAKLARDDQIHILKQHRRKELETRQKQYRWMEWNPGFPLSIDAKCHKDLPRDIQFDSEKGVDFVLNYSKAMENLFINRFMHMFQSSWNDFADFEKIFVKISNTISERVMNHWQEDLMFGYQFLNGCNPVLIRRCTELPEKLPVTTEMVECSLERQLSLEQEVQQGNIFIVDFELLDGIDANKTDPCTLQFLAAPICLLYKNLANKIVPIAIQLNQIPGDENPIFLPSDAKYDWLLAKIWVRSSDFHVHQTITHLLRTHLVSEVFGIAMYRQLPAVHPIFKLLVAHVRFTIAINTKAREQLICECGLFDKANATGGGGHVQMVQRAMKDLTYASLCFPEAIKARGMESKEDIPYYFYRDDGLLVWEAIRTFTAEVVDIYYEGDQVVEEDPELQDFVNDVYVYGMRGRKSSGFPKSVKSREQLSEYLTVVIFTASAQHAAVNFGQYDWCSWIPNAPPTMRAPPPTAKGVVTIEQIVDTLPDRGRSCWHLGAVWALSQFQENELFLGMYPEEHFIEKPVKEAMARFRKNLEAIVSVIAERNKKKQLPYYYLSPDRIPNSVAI
# Assay: Cell-Free Assay
# Procedure: The enzyme activity of 5-LOX was determined fluorescence spectrophotometrically by oxidation of the substrate H2DCFDA to the highly fluorescent 2',7'-dichlorofluorescein product during 5-LOX s catalytic reaction . The reactions were initiated by the addition of AA as substrate and then monitored by excitation at 500 nm and emission at 520 nm utilizing a multiwall fluorometer. Fluorescence signals were recorded for 5 min with a kinetics mode program. Inhibition activities were measured as described previously.
row,SMILES,IC50
1,"O=C(c1[nH]nc2c1CSc1sc(Br)cc1-2)N1CCN(c2ccc(OC(F)(F)F)cc2)CC1 [11-bromo-5-{4-[4-(trifluoromethoxy)phenyl]piperazine-1-carbonyl}-8,10-dithia-3,4-diazatricyclo[7.3.0.0 ,⁶]dodeca-1(9),2,5,11-tetraene (7e)]",86 µM
2,"O=C(c1[nH]nc2c1CSc1sc(Br)cc1-2)N1CCN(Cc2ccccc2)CC1 [5-(4-benzylpiperazine-1-carbonyl)-11-bromo-8,10-dithia-3,4-diazatricyclo[7.3.0.0 ,⁶]dodeca-1(9),2,5,11-tetraene (7i)]",21 µM
3,"O=C(c1[nH]nc2c1CSc1sc(Br)cc1-2)N1CCN(c2ccccc2F)CC1 [11-bromo-5-[4-(2-fluorophenyl)piperazine-1-carbonyl]-8,10-dithia-3,4-diazatricyclo[7.3.0.0,6]dodeca-1(9),2,5,11-tetraene (7c)]",5.7 µM
